As a reminder, the IC90 is the concentration needed for an effect of 90%. Broadly, the pIC50 is −log10 of the IC50, conventionally taken in molar units. A word on the Papp: it is the rate of passage across a membrane or cell layer, normalised by area and donor concentration. Higher therefore signals ready permeation. Usually share remaining stands for the share of the starting amount still present when the sample was taken. Broadly, the pEC50 is the negative decadic logarithm of the EC50, by convention in mol/L. One may read the half-life as the time in which the quantity being followed falls by half. A high value points to slow decline. In general, inhibition refers to how much of the control response was suppressed. Read a high inhibition as strong suppression.

pEC50, pIC50: −log10 of the molar value. Where only a bound is given, the exact number is not on record here.

Data set [1] has as its target T1, C-X-C chemokine receptor type 4 (Homo sapiens, UniProt P61073). Put plainly: Antagonist activity at human CXCR4 in CCRF-CEM cells assessed as decrease in SDF-1alpha stimulated Ca2+ flux preincubated for 25 mins followed by SDF-1alpha addition measured for 90 secs by calcium dye-based fluorescence assay. Type of data set: functional, cell-based. (Calcium assays in cells follow changes in intracellular calcium, usually with a dye or a luminescent sensor.)

Data set [2] can be described thus: Antagonist activity at mAChR in human CCRF-CEM cells assessed as decrease in acetylacholine-stimulated Ca2+ flux preincubated for 25 mins followed by acetylacholine addition measured for 90 secs by calcium dye-based fluorescence assay. Type of data set: cell-based.
Data set [3] can be described thus: Permeability of the compound at pH 7.4 at 100 uM after 4 hrs by PAMPA. A general note: In PAMPA a lipid-coated filter parts donor from acceptor wells.
The nature of data set [4]: Permeability of the compound at pH 5.5 at 100 uM after 4 hrs by PAMPA.
The target in the next data set is Cytochrome P450 2D6 (Homo sapiens, UniProt P10635). Put plainly: Inhibition of recombinant human CYP2D6 expressed in microsomes of insect cells using AMMC as substrate preincubated for 30 mins followed by NADP addition after 45 mins by fluorescence analysis.
Data set [5] in a line: Inhibition of CYP1A4 (unknown origin).
The next data set concerns the target Cytochrome P450 2C19 (Homo sapiens, UniProt P33261). Put plainly: Inhibition of CYP2C19 (unknown origin).
In the next data set the target is T2, Cytochrome P450 2C8 (Homo sapiens, UniProt P10632).
T2 sequence (P10632 whole entry): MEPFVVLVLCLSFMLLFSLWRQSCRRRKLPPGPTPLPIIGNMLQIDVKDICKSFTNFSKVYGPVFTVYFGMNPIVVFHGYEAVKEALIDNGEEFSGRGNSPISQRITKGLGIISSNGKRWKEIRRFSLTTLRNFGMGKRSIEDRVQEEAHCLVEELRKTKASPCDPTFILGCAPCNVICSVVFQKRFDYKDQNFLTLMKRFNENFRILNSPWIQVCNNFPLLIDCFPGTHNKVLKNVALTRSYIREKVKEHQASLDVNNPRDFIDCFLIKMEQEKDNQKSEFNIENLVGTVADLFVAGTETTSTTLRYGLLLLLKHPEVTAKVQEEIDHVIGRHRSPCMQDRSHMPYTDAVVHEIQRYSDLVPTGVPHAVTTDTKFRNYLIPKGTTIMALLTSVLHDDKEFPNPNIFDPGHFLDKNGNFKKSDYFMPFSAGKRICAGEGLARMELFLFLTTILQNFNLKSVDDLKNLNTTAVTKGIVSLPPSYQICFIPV
The data set can be described thus: Inhibition of CYP2C8 (unknown origin).

In a further data set the target is Cytochrome P450 2C9 (Homo sapiens, UniProt P11712). The data set can be described thus: Inhibition of CYP2C9 (unknown origin).
The nature of data set [6]: Metabolic stability in human liver microsomes assessed as parent compound remaining at 0.5 uM after 10 mins in presence of NADPH by LC-MS/MS analysis.
A short description of data set [7]: Metabolic stability in mouse liver microsomes assessed as parent compound remaining at 0.5 uM after 10 mins in presence of NADPH by LC-MS/MS analysis.
Data set [8] concerns the target T1, C-X-C chemokine receptor type 4. The data set can be described thus: Agonist activity at CXCR4 in human CCRF-CEM cells assessed as induction of Ca2+ flux measured for 90 secs by calcium dye-based fluorescence assay. Type of data set: functional, cell-based.
Data set [9] in a line: Agonist activity at mAChR in human CCRF-CEM cells assessed as induction of Ca2+ flux measured for 90 secs by calcium dye-based fluorescence assay. The data set is classed as cell-based.
Data set [10] addresses C-X-C chemokine receptor type 4 (Mus musculus, UniProt P70658). The data set can be described thus: Antagonist activity at mouse CXCR4.
For another data set, the target named is Cytochrome P450 3A4 (Homo sapiens, UniProt P08684). Put plainly: Inhibition of CYP3A4 (unknown origin).
Data set [11] can be described thus: Half life in human liver microsomes. The data set is classed as ADME, microsome. Background: Microsomes from liver hold many membrane-bound enzymes, among them those of drug oxidation.
The nature of data set [12]: Half life in rat Plasma. The data set is classed as ADME, cell-free.
The species named for a further data set is Homo sapiens. The data set can be described thus: Inhibition of chemokine receptor (unknown origin) at 10 uM.

T1 sequence (P61073 whole entry): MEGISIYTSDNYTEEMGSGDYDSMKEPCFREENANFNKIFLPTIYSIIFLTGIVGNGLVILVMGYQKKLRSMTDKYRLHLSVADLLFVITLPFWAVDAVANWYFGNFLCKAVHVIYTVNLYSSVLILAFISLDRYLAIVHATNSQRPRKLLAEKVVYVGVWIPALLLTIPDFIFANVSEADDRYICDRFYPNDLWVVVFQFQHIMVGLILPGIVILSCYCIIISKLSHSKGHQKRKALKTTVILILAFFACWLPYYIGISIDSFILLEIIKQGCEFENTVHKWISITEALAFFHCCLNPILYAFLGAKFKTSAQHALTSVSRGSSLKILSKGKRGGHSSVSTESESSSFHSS
Cytochrome P450 2D6, sequence (P10635 whole entry): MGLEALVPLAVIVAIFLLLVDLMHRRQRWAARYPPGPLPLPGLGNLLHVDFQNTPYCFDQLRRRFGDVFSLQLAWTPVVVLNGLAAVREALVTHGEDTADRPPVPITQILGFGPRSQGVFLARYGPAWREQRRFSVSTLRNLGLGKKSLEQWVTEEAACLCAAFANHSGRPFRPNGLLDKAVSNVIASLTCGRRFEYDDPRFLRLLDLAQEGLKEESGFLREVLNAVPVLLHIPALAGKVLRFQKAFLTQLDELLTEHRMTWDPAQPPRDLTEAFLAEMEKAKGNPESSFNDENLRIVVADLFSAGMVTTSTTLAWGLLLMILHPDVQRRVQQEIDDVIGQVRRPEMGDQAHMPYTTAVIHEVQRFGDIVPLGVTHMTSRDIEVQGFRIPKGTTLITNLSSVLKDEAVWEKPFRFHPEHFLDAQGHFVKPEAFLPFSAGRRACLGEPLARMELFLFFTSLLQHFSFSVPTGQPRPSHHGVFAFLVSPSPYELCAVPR
Cytochrome P450 2C19, sequence (P33261 whole entry): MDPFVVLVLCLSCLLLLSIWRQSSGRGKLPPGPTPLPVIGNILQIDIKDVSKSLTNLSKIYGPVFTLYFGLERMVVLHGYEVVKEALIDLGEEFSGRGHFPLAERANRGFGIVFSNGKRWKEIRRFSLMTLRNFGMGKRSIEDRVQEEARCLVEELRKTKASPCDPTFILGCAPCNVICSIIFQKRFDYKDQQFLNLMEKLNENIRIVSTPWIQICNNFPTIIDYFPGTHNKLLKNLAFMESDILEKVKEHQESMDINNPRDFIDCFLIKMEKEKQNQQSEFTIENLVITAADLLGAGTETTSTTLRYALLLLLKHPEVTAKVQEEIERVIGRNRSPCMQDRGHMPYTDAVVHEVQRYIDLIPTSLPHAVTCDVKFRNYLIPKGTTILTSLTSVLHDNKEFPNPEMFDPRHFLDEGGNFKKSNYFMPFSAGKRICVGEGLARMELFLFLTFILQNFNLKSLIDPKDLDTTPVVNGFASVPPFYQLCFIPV
C-X-C chemokine receptor type 4 (Mus musculus, UniProt P70658), sequence (P70658 whole entry): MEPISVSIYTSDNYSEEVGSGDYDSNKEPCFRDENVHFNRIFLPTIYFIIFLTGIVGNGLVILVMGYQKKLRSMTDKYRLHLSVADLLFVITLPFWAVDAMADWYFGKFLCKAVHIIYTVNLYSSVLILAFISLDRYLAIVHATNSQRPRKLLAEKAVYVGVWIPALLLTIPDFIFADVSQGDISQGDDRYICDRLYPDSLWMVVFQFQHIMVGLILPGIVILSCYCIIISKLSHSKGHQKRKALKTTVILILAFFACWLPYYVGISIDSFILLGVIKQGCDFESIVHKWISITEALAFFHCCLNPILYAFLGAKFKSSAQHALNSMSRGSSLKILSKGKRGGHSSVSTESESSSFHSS
Cytochrome P450 2C9, sequence (P11712 whole entry): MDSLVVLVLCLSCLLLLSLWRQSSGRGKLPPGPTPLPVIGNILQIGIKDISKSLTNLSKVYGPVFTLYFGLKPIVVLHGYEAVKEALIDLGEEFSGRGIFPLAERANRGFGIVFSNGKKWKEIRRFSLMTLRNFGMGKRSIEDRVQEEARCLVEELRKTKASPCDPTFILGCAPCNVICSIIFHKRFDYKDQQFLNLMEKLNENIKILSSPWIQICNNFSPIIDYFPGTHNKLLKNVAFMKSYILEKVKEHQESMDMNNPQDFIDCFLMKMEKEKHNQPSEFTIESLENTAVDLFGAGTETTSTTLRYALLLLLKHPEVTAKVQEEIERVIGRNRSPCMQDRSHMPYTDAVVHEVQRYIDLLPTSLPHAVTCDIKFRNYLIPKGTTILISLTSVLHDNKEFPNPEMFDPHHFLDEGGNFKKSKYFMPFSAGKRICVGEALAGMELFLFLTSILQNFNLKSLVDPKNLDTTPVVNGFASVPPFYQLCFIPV
Cytochrome P450 3A4, sequence (P08684 whole entry): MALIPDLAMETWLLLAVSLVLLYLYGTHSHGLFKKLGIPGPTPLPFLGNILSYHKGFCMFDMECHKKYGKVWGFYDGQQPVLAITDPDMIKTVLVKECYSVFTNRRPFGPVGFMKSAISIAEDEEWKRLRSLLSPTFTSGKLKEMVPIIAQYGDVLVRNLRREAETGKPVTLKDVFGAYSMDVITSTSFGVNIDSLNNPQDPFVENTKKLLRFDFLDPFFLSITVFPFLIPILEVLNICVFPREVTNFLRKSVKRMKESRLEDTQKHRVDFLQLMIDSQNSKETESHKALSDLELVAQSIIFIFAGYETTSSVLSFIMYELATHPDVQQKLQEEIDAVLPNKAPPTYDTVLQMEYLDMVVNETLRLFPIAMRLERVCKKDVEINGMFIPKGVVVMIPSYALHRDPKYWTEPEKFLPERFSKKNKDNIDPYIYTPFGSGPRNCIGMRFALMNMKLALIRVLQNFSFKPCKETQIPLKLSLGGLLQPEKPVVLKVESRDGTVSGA

For the compound `C(=C\CN(C[C@H]1Cc2ccccc2CN1)[C@H]1CCCc2cccnc21)/CNC1CCOCC1`, the concentration for an effect of 90% (IC90) in [1] came out at 0.191 µM. Besides, the pIC50 in data set [2] was 5.25; at Cytochrome P450 2D6 it was 5.58; in data set [5] it was more than 5.30; against Cytochrome P450 2C19, more than 5.30; against Cytochrome P450 2C8, more than 5.30; against Cytochrome P450 2C9, more than 5.30. This compound had a negative-log IC50 (pIC50) in data set [10] of 8.03. Besides, the Papp at 4 h, 100 µM in [3] came to 43.4 ×10⁻⁶ cm/s; in data set [4] it was 10.5 ×10⁻⁶ cm/s. For the same compound, the values for the fraction remaining at 10 min, 0.5 µM in data set [6] and in data set [7] were 69.9% and 10%, respectively. The pEC50 in [8] and in data set [9] was less than 4.52 throughout.

For the compound `CC(C)(CCN(C[C@H]1Cc2ccccc2CN1)[C@H]1CCCc2cccnc21)CNC1CCOCC1`, the negative-log IC50 (pIC50) in [1] is 7.44; in data set [2], 4.94; at Cytochrome P450 2D6, 5.21; against Cytochrome P450 3A4, 4.75; in data set [5] it was more than 5.30; against Cytochrome P450 2C19 it was more than 5.30. Further, the pIC50 was more than 5.30 against Cytochrome P450 2C8, more than 5.30 at Cytochrome P450 2C9 and 7.70 in data set [10]. For the same compound, the IC90 in data set [1] came to 0.416 µM. Besides, the apparent permeability coefficient (Papp) at 4 h, 100 µM in data set [3] and in data set [4] was 5.7 ×10⁻⁶ cm/s throughout. For the same compound, the share remaining at 10 min, 0.5 µM came to 21.8% in data set [6] and 49.8% in data set [7]. In addition, the pEC50 in data set [8] and in [9] was less than 4.52 each time.

Consider `NCCCCN(C[C@H]1Cc2ccccc2CN1)[C@H]1CCCc2cccnc21`, for which the IC90 in data set [1] came out at 0.0326 µM. The pIC50 in data set [2] was less than 4.52. The compound further came in with a Papp at 4 h, 100 µM in data set [4] of 0.6 ×10⁻⁶ cm/s. The pEC50 in [9] was less than 4.52. The half-life in [11] is 1 h; in data set [12], 6 h. Moreover, the inhibition in the data set listed under Homo sapiens is less than 10%.

As for `C(=C\CN(C[C@H]1Cc2ccccc2CN1)[C@H]1CCCc2cccnc21)/CNCC1CCOCC1`, the IC90 in data set [1] was 0.195 µM. The pIC50 was 4.70 in data set [2]; 5.48 at Cytochrome P450 2D6; more than 5.30 in data set [5]; more than 5.30 against Cytochrome P450 2C19; more than 5.30 on Cytochrome P450 2C8; more than 5.30 on Cytochrome P450 2C9. Besides, the pIC50 in data set [10] is 8.26. Besides, the values for the apparent permeability (Papp) at 4 h, 100 µM in data set [3] and in [4] were 12.2 ×10⁻⁶ cm/s and 3.35 ×10⁻⁶ cm/s, respectively. The fraction remaining at 10 min, 0.5 µM in [6] was 74.5%; in data set [7], 32.3%. Further, the pEC50 in data set [8] and in data set [9] was less than 4.52 each time.

The values above are taken from ChEMBL document CHEMBL4052827, “Discovery of Tetrahydroisoquinoline-Containing CXCR4 Antagonists with Improved in Vitro ADMET Properties” (J Med Chem, 2018).
